The subject of assay [1] is bDAP 1. As to the kind of experiment: pH dependence of GRpNA cleavage. The format is biochemical, bovine. Particulars: below pH 2.5 or above pH 5. On the procedure: Four mM GRpNA was prepared in 50 mM acetic acid, 50 mM glycine buffer, pH 5. HCl or NaOH was used to achieve a variety of pHs, from 5.1 to 2.3. To 180 ul of the above pH buffered substrate was added 5 ul bDAP 1 (49 milliunits/ml final). The rate of increase of absorbance at 410 nm was monitored (using a plate-reader) and the rate of increase was compared with the pH of the reaction solution.

The target in the next assay is Bovine DAP-I (Bos taurus, UniProt Q3ZCJ8). In words: Cleavage of RRBNA / Z-RRBNA (fluorescence). The class given is biochemical. Particulars: 0.25 mM substrate, pH 3.5 or pH 5.0, about 15 milliunit/ml enzyme. On the procedure: (§1) About 0.25 mM RRBNA or 0.25 mM Z-RRBNA was prepared in either 100 mM acetic acid, pH 3.5, or 100 mM citrate buffer, pH 5.0. To 2 ml of substrate was added bDAP 1 or bovine DAP-I (about 15 milliunit/ml solution). Rates of cleavage (monitoring fluorescence increase at 410 nm with excitation at 340 nm) were monitored. […] The pH optimum for cleavage of RRBNA was probed by monitoring the rate of RRBNA cleavage using a buffer system consisting of 50 mM acetic acid and 50 mM citrate. Various pHs were achieved using HCl or NaOH and 1.5 ml volumes were made 2.0 with 0.5 ml of a 1 mM stock solution of RRBNA (final concentration of about 0.25 mM). bDAP 1 was added (to about 15 mU/ml) and the rates of cleavage were determined.
Bovine DAP-I, sequence (Q3ZCJ8 25-134): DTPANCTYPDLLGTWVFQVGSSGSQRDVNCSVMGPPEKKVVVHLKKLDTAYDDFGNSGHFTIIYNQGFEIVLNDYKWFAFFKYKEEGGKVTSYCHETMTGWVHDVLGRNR
Bovine DAP-I, sequence (Q3ZCJ8 231-463): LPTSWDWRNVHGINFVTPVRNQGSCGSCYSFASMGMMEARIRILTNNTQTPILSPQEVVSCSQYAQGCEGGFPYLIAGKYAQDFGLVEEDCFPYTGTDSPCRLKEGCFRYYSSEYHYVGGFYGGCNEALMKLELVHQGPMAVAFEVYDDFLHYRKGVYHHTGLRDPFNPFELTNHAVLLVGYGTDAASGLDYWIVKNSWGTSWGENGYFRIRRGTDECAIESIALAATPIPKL

The subject of assay [2] is bDAP 1. In words: Cleavage of RRBNA / Z-RRBNA (fluorescence). Particulars: for ability of the enzyme to cleave the substrate: 0.25 mM substrate, pH 3.5 or pH 5.0, about 15 milliunit/ml enzyme. The class given is biochemical, bovine. Here is the method:
as §1

The subject of assay [3] is bDAP 1. As to the kind of experiment: Inhibition of GFpNA cleavage by sulfhydryl modifying agents. The format is biochemical, bovine. The conditions noted are these: 0.5, 5.0 or 50 mM inhibitor, 15 minutes at room temperature, pH 7; then 4 mM GFpNA pH 3.5, 37° C. Here is the method:
(§2) After purification or storage, bDAP 1 enzymatic activity was usually monitored by following the cleavage of the chromogenic substrate GFpNA. Typically the assay was performed by diluting the enzyme at least 11 fold into 1.0 ml of 4 mM GFpNA in 0.05M acetic acid adjusted to pH 3.5. The rate of cleavage of Gly-Phe dipeptide was monitored at 37° C. by measuring the increase in absorbance at 405 nm. One unit of activity leads to a 0.90 OD change per minute under these conditions. Unit/ml estimates can be made assuming an extinction coefficient for free p-nitroanilide (pNA) of 9.9 mM-1 cm-1 at 405 nm.
(§3) The inhibition profile of bDAP 1 toward the substrate GFpNA was compared to that of bovine spleen DAP-I using iodoacetamide and potassium tetrathionate, sulfihydryl modifying agents known to inhibit the activity of bovine spleen DAP-I. Samples of bDAP 1 or bovine spleen DAP-I were incubated for 15 minutes at room temperature in final concentrations of 0, 0.5, 5.0 or 50 mM of either inhibitor at pH 7 in 100 mM Tris buffer. The incubated solutions were then diluted 21-fold with 4 mM GFpNA, pH 3.5. The rate of cleavage was monitored by measuring the increase in absorbance at 405 nm at 37° C. Bovine DAP-I's rate of cleavage of GFpNA was decreased more than 90% by the exposure to 5 mM iodoacetamide and was 95% inhibited by 5 mM potassium tetrathionate.

The target in another assay is bovine spleen DAP-I (Bos taurus, UniProt Q3ZCJ8). The description is as above. The class given is biochemical. The conditions noted are these: 5 mM inhibitor, 15 minutes at room temperature, pH 7, 100 mM Tris; then diluted 21-fold with 4 mM GFpNA pH 3.5, 37° C., 405 nm; read-out: decrease of rate of cleavage of GFpNA (inhibition). On the procedure:
as §2, §3

Peptide text beside a SMILES is read from it. * marks the point of attachment. pNA = O=[N+]([O-])c1ccc(N*)cc1; βNA = c1ccc2cc(N*)ccc2c1; Cbz = O=C(OCc1ccccc1)*

The text below walks through data of patent publication US6008041A, “Bovine dipeptidylaminopeptidase 1” (Eli Lilly and Company, priority 1997, dated 1999).

bovine spleen DAP-I, sequence (Q3ZCJ8 25-134): as the sequence (Q3ZCJ8 25-134) above
bovine spleen DAP-I, sequence (Q3ZCJ8 231-463): as the sequence (Q3ZCJ8 231-463) above

`N=C(N)NCCC[C@H](NC(=O)CN)C(=O)Nc1ccc([N+](=O)[O-])cc1` [GRpNA, Gly-Arg-pNA] (H-Gly-Arg-pNA): the “activity outside the optimum range” value in the assay on bDAP 1 [1] is given as “little activity”.

Regarding `N=C(N)NCCC[C@H](NC(=O)[C@@H](N)CCCNC(=N)N)C(=O)Nc1ccc2ccccc2c1` [RRBNA, Arg-Arg-β-naphthylamide] (H-Arg-Arg-βNA), the “ability of the enzyme to cleave the substrate” value on Bovine DAP-I is reported as “unable to cleave”; in the assay with bDAP 1 [2], “able to effectively cleave”. Besides, the “activity over the pH range probed” value with bDAP 1 [2] (pH 3.5 to pH 5.7) is listed as “significant activity”.

For the compound `N=C(N)NCCC[C@H](NC(=O)OCc1ccccc1)C(=O)N[C@@H](CCCNC(=N)N)C(=O)Nc1ccc2ccccc2c1` [Z-RRBNA, benzyloxycarbonyl-RRBNA] (Cbz-Arg-Arg-βNA), the “ability of the enzyme to cleave the substrate” value on Bovine DAP-I and in the assay on bDAP 1 [2] was “unable to cleave” each time.

As to `NC(=O)CI` [iodoacetamide], the “inhibition of GFpNA cleavage” value in the assay on bDAP 1 [3] is “no evidence of significant inhibition”. Further, the inhibition – broadly, the drop in the measured response relative to a control, in per cent – at 5000 µM at bovine spleen DAP-I is > 90%.

In the case of `O=S(=O)([O-])SSS(=O)(=O)[O-].[K+].[K+]` [potassium tetrathionate], the “inhibition of GFpNA cleavage” value with bDAP 1 [3] was “no evidence of significant inhibition”.
